# Results reported in patent publication US20230382915A1, “GCN2 AND PERK KINASE INHIBITORS AND METHODS OF USE THEREOF” (Deciphera Pharmaceuticals, LLC, priority 2021, published 2023).
# pIC50: −log10 of the molar value.
# What was measured:
# [1] = test system: H2030 solid tumor spheroids; assay: Spheroid proliferation assay, H2030; assay type: cell-based; conditions: for spheroid growth, combination treatment: 96 h
# Protocol: Non Small Cell Lung Cancer (NSCLC) cell lines H358 (catalog #CRL-5807) and H2030 (catalog #CRL-5914), and fibrosarcoma line HT-1080 (catalog […]) were obtained from the American Type Culture Collect (ATTC, Manassas, VA). Cells were grown in RPMI-1640 medium supplemented with 10% heat-inactivated fetal bovine serum and 1% Penicillin/Streptomycin/L-Glutamine (Invitrogen, Carlsbad, CA) at 37° C., 5% CO2, and 95% humidity and maintained at 50-80% confluency until use. 500-1000 cells were plated in 96-well ultra-low attachment plates (Corning, Glendale, AZ) with complete growth media at 80 μL/well and incubated overnight at 37° C., 5% CO2, and 95% humidity to form spheroids. The next day, serial dilutions of test compounds were prepared in complete growth media and 20 μL/well media containing compound titers was added to spheroids in triplicate. […] At the end of the incubation, spheroids were lysed with 100 μL/well CellTiter-Glo 3D Viability Assay (Promega, Madison, WI) and luminescence was detected using Synergy2 or equivalent reader (Biotek, Winooski, VT). Data was analyzed using GraphPad Prism software (GraphPad, San Diego, CA) to calculate IC50 values.
# [2] = test system: ATF4 in H929 multiple myeloma cells; assay: H929 ATF4 ELISA assay; assay type: cell-based
# Protocol: H929 multiple myeloma cells (catalog #CRL-9068) were obtained from the American Type Culture Collection (ATTC, Manassas, VA). Briefly, cells were grown in RPMI-1640 medium supplemented with 20% heat-inactivated fetal bovine serum (catalog #A3840002, ThermoFisher Scientific, Waltham, MA), 1% Penicillin/Streptomycin/L-Glutamine (catalog #10378016, ThermoFisher Scientific, Waltham, MA), and 0.05 mM 2-mercaptoethanol (catalog #21985-023, ThermoFisher Scientific, Waltham, MA) at 37° C., 5% CO2, and 95% humidity. Cells were expanded until reaching one million five hundred thousand cells per mL at which time they were sub-cultured or harvested for assay use. One million five hundred thousand cells per well in 1 mL complete growth medium were dispensed into 12-well plates and incubated overnight. A serial dilution of test compound was added, and cells were incubated at 37° C., 5% CO2, and 95% for four hours. Cells were lysed then ATF4 levels were measured using an ELISA assay (Proteintech, Rosemont, IL). Absorbance is measured at 450 nm and 544 nM using a Synergy2 or equivalent reader (Biotek, Winooski VT). Data were analyzed using PRISM software (Graphpad, San Diego, CA) to calculate fold stimulation of cellular ATF4 relative to vehicle treated control.
# [3] = test system: HT-1080 solid tumor spheroids; assay: Spheroid proliferation assay, HT-1080; assay type: cell-based; conditions: Homo sapiens, HT-1080, 120 h; 5 days, FIG. 11C; read-out: inhibition of cell proliferation IC50, single agent
# Protocol: Non Small Cell Lung Cancer (NSCLC) cell lines H358 (catalog #CRL-5807) and H2030 (catalog #CRL-5914), and fibrosarcoma line HT-1080 (catalog […]) were obtained from the American Type Culture Collect (ATTC, Manassas, VA). Cells were grown in RPMI-1640 medium supplemented with 10% heat-inactivated fetal bovine serum and 1% Penicillin/Streptomycin/L-Glutamine (Invitrogen, Carlsbad, CA) at 37° C., 5% CO2, and 95% humidity and maintained at 50-80% confluency until use. 500-1000 cells were plated in 96-well ultra-low attachment plates (Corning, Glendale, AZ) with complete growth media at 80 μL/well and incubated overnight at 37° C., 5% CO2, and 95% humidity to form spheroids. The next day, serial dilutions of test compounds were prepared in complete growth media and 20 μL/well media containing compound titers was added to spheroids in triplicate. Spheroids were then incubated with test compounds for 5 days under the same conditions. At the end of the incubation, spheroids were lysed with 100 μL/well CellTiter-Glo 3D Viability Assay (Promega, Madison, WI) and luminescence was detected using Synergy2 or equivalent reader (Biotek, Winooski, VT). Data was analyzed using GraphPad Prism software (GraphPad, San Diego, CA) to calculate IC50 values.
# [4] = test system: ATF4 levels in HT-1080 fibrosarcoma xenograft; assay: HT-1080 fibrosarcoma xenograft PK/PD model; assay type: in vivo, mice
# Protocol: The HT-1080 xenograft model was performed in compliance with all the laws, regulations and guidelines of the National Institutes of Health (NIH) and with the approval of the Animal Care and Use Committee of Labcorp (Ann Arbor, MI), an AAALAC accredited facility. Food and water were provided ad libitum. […] Female nude mice (6-7 weeks old) were inoculated subcutaneously just below the right high axilla with two million cells in Dulbecco's Phosphate Buffered Saline, using a 27-gauge needle and syringe. When tumor burdens reached 150 mm 3 on average on day 6, mice were randomly assigned into groups such that the mean tumor burden for all groups was within 10% of the overall mean tumor burden for the study population. Groups were treated on days 6-11 as follows: vehicle control (dosed orally) (n=9); Compound 2 dosed orally at 10 mg/kg BID (n=9); Compound 2 dosed orally at 5 mg/kg BID; Compound 2 dosed orally at 1 mg/kg BID (n=9) prior to sample harvest at 2, 6 and 10 h post dose on day 11. Blood samples were collected in K2EDTA tubes and processed into plasma, snap frozen in liquid nitrogen then stored at −80° C. Plasma samples were subjected to pharmacokinetic analysis using liquid chromatography coupled with tandem mass spectrometry analysis (Cayman Chemical, Ann Arbor, MI). Tumors were harvested and powdered over liquid nitrogen in covaris bags and stored at −80° C. For tissue sample processing roughly 30 mg of tumor tissue was lysed in MPER lysis buffer (Thermo Fisher Scientific, Waltham, MA) supplemented with 3× Halt protease inhibitor, 3×Halt phosphatase inhibitor, 3× Sigma phosphatase inhibitor cocktail 2 and 3×EDTA on ice then homogenized using Bead Ruptor 96 (Omni, Kennesaw, GA). […] Protein concentrations were determined using BCA protein assay kit (Thermo Fisher Scientific, Waltham, MA). […] Samples were resolved using SDS-PAGE then analyzed using Western blot to quantify ATF4 and beta-Actin (Cell Signaling Technology, Danvers, MA). […] Data was analyzed using GraphPad Prism software (GraphPad, San Diego, CA) to calculate % inhibition.
compound,measurement,setting,value
"Cn1cc(-c2cccc(NS(=O)(=O)c3cc(Cl)cc(CO)c3Cl)c2F)c2c(N)ncnc21 [Example 2, N-(3-(4-amino-7-methyl-7H-pyrrolo[2,3-d]pyrimidin-5-yl)-2-fluorophenyl)-2,5-dichloro-3-(hydroxymethyl)benzenesulfonamide]","cell regression, single agent","[1]; 5 days, FIG. 11A",50%
same,"spheroid growth, combination treatment","[1]; with 3.3 nM sotorasib, FIG. 12A",greater spheroid regression compared to either single agent
same,"spheroid growth, combination treatment","[1]; with 3.7 nM trametinib, FIG. 12C",greater spheroid regression compared to either single agent
same,concentration at which maximum ATF4 stimulation occurred,[2]; FIG. 1,around 41 nM
same,maximum stimulation in ATF4 signal,[2]; FIG. 1,13 fold
same,concentrations at which ATF4 expression reverted to basal levels,"[2]; FIG. 1, inhibitory phase",≥ 370 nM
same,H929 NS ATF4 ELISA (ATF4 stim),"[2]; four hours, relative to vehicle treated control",+++ (an ATF4 stim greater than 10 fold and less than or equal to 20 fold)
same,pIC50,[3],7.92
same,upregulation of ATF4 levels compared to vehicle control,[4]; 1 mg/kg BID orally,3 fold
same,upregulation of ATF4 levels compared to vehicle control,[4]; 5 mg/kg BID orally,3.5 fold
same,upregulation of ATF4 levels compared to vehicle control,[4]; 10 mg/kg BID orally,4.5 fold
